Patent publication US8927580B2, “Thiosemicarbazone compounds and use in the treatment of cancer” (Oncochel Therapeutics LLC, priority 2010, dated 2015)
Where a name gives a salt, the structure may show the parent alone. One block for each compound: values may come before it.

Tests used:
[1] = test system: CAPAN-2 pancreatic cancer cells; experiment: MTT proliferation assay, CAPAN-2; type: cell-based; conditions: Homo sapiens; CAPAN-2, MTT, 72 h
Protocol: (§1) The pancreatic cancer cell lines, including MIAPaCa-2, PANC 1, CAPAN-2 and CFPAC-1 were a generous gift from Prof. Andrew Biankin (Garvan Institute, NSW, Australia). The MIAPaCa-2, PANC 1 and CFPAC-1 cell lines were grown in DMEM medium (Invitrogen) and CAPAN-2 cells were grown in McCoy's medium (Invitrogen). All media was supplemented with 10% (v/v) fetal calf serum (Invitrogen), 1% (v/v) non-essential amino acids (Invitrogen), 1% (v/v) sodium pyruvate (Invitrogen), 2 mM L-glutamine (Invitrogen), 100 μg/mL of streptomycin (Invitrogen), 100 U/ml penicillin (Invitrogen), and 0.28 μg/mL of fungizone.
(§2) To further examine the spectrum of anti-proliferative activity, Dp4cycH4mT was tested against pancreatic cancer in vitro, performing MTT proliferation assays with PANC 1, MIAPaCa-2, CFPAC-1 and CAPAN-2 pancreatic cancer cells. As a comparison, currently used treatments for pancreatic cancer including gemcitabine and 5-fluorouracil were also tested. The iron chelator, DFO, was included as a positive control.
(§3) Table 2A. Anti-proliferative activity of Dp4cycH4mT against pancreatic cancer cell lines. Growth and antiproliferative activity IC50 (μM) values of Dp4cycH4mT in a variety of pancreatic cell lines and in comparison to DFO and the clinically used drugs gemcitabine and 5-fluorouracil as determined by the MTT assay. Cells were seeded and allowed to attach to wells for 24 h and then incubated for 72 h at 37° C. with control medium or the chelators. Results are mean±SD (3 experiments).
as §3, with “2B.” for “2A.”, “IC90” for “Growth and antiproliferative activity IC50”

[2] = test system: MIAPaCa-2 pancreatic cancer cells; experiment: MTT proliferation assay, MIAPaCa-2; type: cell-based; conditions: Homo sapiens, MIA PaCa-2; MIAPaCa-2, MTT, 72 h
Protocol: as §1, §2, §3
as §3, with “2B.” for “2A.”, “IC90” for “Growth and antiproliferative activity IC50”

[3] = test system: CFPAC-1 pancreatic cancer cells; experiment: MTT proliferation assay, CFPAC-1; type: cell-based; conditions: Homo sapiens; CFPAC-1, MTT, 72 h
Protocol: as §1, §2, §3
as §3, with “2B.” for “2A.”, “IC90” for “Growth and antiproliferative activity IC50”

[4] = test system: PANC 1 pancreatic cancer cells; experiment: MTT proliferation assay, PANC 1; type: cell-based; conditions: Homo sapiens; PANC 1, MTT, 72 h
Protocol: as §1, §2, §3
as §3, with “2B.” for “2A.”, “IC90” for “Growth and antiproliferative activity IC50”

[5] = DMS-53 xenograft oral study: body and organ weights, haematology, biochemistry, histology; type: in vivo, nude mice (BALBc nu/nu)
[6] = DMS-53 xenograft i.v. study: body and organ weights, haematology, histology; type: in vivo, nude mice (BALBc nu/nu); conditions: for HCT / HGB / PLT / RBC / WBC / Body weight (% of initial weight) / Brain weight / Heart weight / Kidney weight / Liver weight / Spleen weight / weight loss (% of initial body weight): i.v.; for HCT / HGB / PLT / RBC / WBC: average; for weight loss (% of initial body weight): after 25 days
[7] = test system: DMS-53 human lung carcinoma; experiment: DMS-53 xenograft in nude mice, i.v. administration: tumour growth; type: in vivo, nude mice (BALBc nu/nu)
[8] = test system: DMS-53 human lung carcinoma; experiment: DMS-53 xenograft in nude mice, oral gavage: tumour growth; type: in vivo, nude mice (BALBc nu/nu); conditions: for Tumour weight: 21 days; for net tumour size (% of initial tumour volume): after 21 days
[9] = test system: SK-N-MC neuroepithelioma cell line; experiment: MTT anti-proliferative assay in SK-N-MC cells; type: cell-based, human; conditions: 72 h at 37° C., mean±SD (3 experiments)
Protocol: The cells were maintained in minimum essential media (MEM; Invitrogen, CA, USA) which contained 10% fetal calf serum (FCS; JRH Biosciences, Kansas, USA), 1% non-essential amino acids (Gibco, Victoria, Australia), 1% penicillin/streptomycin/glutamine (Gibco, VIC, Australia) and fungizone ([…]; Squibb Pharmaceuticals, Montreal, Canada).
The ability of the compounds to inhibit cellular proliferation was assessed initially in SK-N-MC cells by the MTT assay.
Table 1. […] Cells were seed and allowed to attach to wells for 24 h and then incubated for 72 h at 37° C. with control medium or the chelators.

[10] = test system: SK-N-MC neuroepithelioma cells; experiment: Iron uptake assay (59Fe uptake from 59Fe-transferrin); type: cell-based, human; conditions: 25 μM chelator, 3 h at 37° C., 59Fe-Tf
Protocol: Cells were cultured in the same way as for the iron efflux experiments. […] At the end of the incubation the culture dishes were placed on ice, the media aspirated, and the cells washed 4 times with ice cold PBS. Protease (1 mL; 1 mg/mL; Sigma-Aldrich, NSW, Australia) solution was added to each plate and allowed to incubate on ice for 30 min. This facilitated the removal of membrane bound ^59Fe-Tf. Cells were then scraped from the plastic surface using a Teflon spatula and collected in Eppendorf tubes. These were centrifuged at 10000 rpm and 4° C. for 3 min. The supernatant was then transferred into counting tubes and the cell pellet resuspended in PBS before also being transferred into another set of counting tubes. Radioactivity was measured using a Wallac Wizard 3″ Gamma Counter (PerkinElmer, MA, USA). Results are expressed as average ^59Fe content of the cellular fraction as a percentage of the control value.

[11] = test system: SK-N-MC neuroepithelioma cells; experiment: Iron efflux assay (59Fe release from pre-labeled cells); type: cell-based, human; conditions: 25 μM chelator, 3 h at 37° C.
Protocol: The culture dishes were then placed on ice, the supernatant containing excess ^59Fe-Tf was aspirated and the cells washed 4 times with ice-cold PBS. […] After 3 h the culture dishes were again placed on ice, the media was collected in counting tubes and this provided a measurement of released ^59Fe. Ice-cold PBS (1 mL) was added to plates containing cells and cells were scraped from the plastic surface using a Teflon spatula and also collected in counting tubes. These tubes represent the intracellular ^59Fe content. Results are expressed as total ^59Fe released as a percentage of total ^59Fe present. Radioactivity was measured using a Wallac Wizard 3″ Gamma Counter (PerkinElmer, MA, USA).

[12] = mouse, in vivo
[13] = test system: PANC 1 human pancreatic carcinoma; experiment: PANC 1 xenograft in nude mice: tumour growth; type: in vivo, nude mice (BALBc nu/nu)
Protocol: FIG. 5). […] (5 mg/kg) or vehicle control.

Compound: O=c1[nH]cc(F)c(=O)[nH]1 [5-fluorouracil]
IC50 [1]: 59.2 ± 24.2 µM | IC90 [1]: > 80 µM | IC50 [2]: 24.3 ± 6.3 µM | IC90 [2]: > 5 µM | IC50 [3]: 41.2 ± 1.1 µM | IC90 [3]: > 40 µM | IC50 [4]: 62.3 ± 6.5 µM | IC90 [4]: > 20 µM

Compound: O=C(NN=Cc1c(O)ccc2ccccc12)c1ccncc1 [compound 311, 2-hydroxy-1-naphthylaldehyde isonicotinoyl hydrazone, reference compound]
IC50 [9]: 0.72 ± 0.32 µM | cellular 59Fe uptake (% of the control) [10]: 5%

Compound: CC(=O)N(O)CCCCCNC(=O)CCC(=O)N(O)CCCCCNC(=O)CCC(=O)N(O)CCCCCN [DFO, desferrioxamine]
cellular 59Fe mobilised (59Fe released as percentage of total 59Fe) [11]: 16% | IC50 [1]: 7 ± 5.4 µM | IC90 [1]: > 80 µM | IC50 [2]: 38.7 ± 6.2 µM | IC90 [2]: > 80 µM | IC50 ([9]; Homo sapiens): 13.4 ± 3.7 µM | cellular 59Fe uptake (% of the control) [10]: 84% | IC50 [3]: 14.7 ± 3.1 µM | IC90 [3]: > 80 µM | IC50 [4]: 9.5 ± 1.4 µM | IC90 [4]: > 80 µM

Second part, led by results:

myocardial lesions (Gomori-Trichrome stain) ([5]; Dp44mT 0.75 mg/kg, Dp4e4mT.HCl 3 weeks at 2.5, 5, 7.5 and 10 mg/kg oral): did not induce myocardial lesions | histology of the liver, spleen, kidney, brain or tumour (H & E) vs control ([5]; Dp44mT 2 weeks at 0.75 mg/kg, Dp4e4mT.HCl 3 weeks at 2.5, 5, 7.5 and 10 mg/kg oral): no significant differences | Total Iron-Binding Capacity (TIBC) ([5]; oral gavage 21 days, 5 mg/kg): 53.1 ± 1.2 µmol/L | Alkaline Phosphatase (ALP) ([5]; oral gavage 21 days, 10 mg/kg): 89.5±4.5 U/L | histology of the liver, spleen, kidney, brain or tumour (H & E) vs control ([6]; 2 weeks i.v., Dp44mT 0.75 mg/kg, Dp4e4mT.HCl 4 and 6 mg/kg): no significant differences | myocardial lesions (Gomori-Trichrome stain) ([6]; 2 weeks i.v., Dp44mT 0.75 mg/kg, Dp4e4mT.HCl 4 or 6 mg/kg): did not induce myocardial lesions | change in red blood cell count, haemoglobin or white blood cell count ([6]; after 2 weeks, Dp44mT 0.75 mg/kg, Dp4e4mT.HCl 1.5, 4 or 6 mg/kg i.v.): no significant change | HCT ([6]; 1.5 mg): 0.4 | HGB ([6]; 1.5 mg): 150.60 g/L | PLT ([6]; 1.5 mg): 766.4 10 × 9 cells/L | RBC ([6]; 1.5 mg): 8.76 10 × 12 cells/L | WBC ([6]; 1.5 mg): 3.34 10 × 9 cells/L | Brain weight ([6]; 1.5 mg/kg): 0.26 ± 0.13 g | Heart weight ([6]; 1.5 mg/kg): 0.1 ± 0.004 g | Kidney weight ([6]; 1.5 mg/kg): 0.26 ± 0.01 g | Liver weight ([6]; 1.5 mg/kg): 1.01 ± 0.02 g | Spleen weight ([6]; 1.5 mg/kg): 0.11 ± 0.01 g | HCT ([6]; 4 mg): 0.47 | HGB ([6]; 4 mg): 153.75 g/L | PLT ([6]; 4 mg): 1224.5 10 × 9 cells/L | RBC ([6]; 4 mg): 10.74 10 × 12 cells/L | WBC ([6]; 4 mg): 2.94 10 × 9 cells/L | Brain weight ([6]; 4 mg/kg): 0.36 ± 0.01 g | Heart weight ([6]; 4 mg/kg): 0.1 ± 0.01 g | Kidney weight ([6]; 4 mg/kg): 0.26 ± 0.01 g | Liver weight ([6]; 4 mg/kg): 1.03 ± 0.02 g | Spleen weight ([6]; 4 mg/kg): 0.08 ± 0.003 g | HCT ([6]; 6 mg): 0.41 | HGB ([6]; 6 mg): 132.33 g/L | PLT ([6]; 6 mg): 1238 10 × 9 cells/L | RBC ([6]; 6 mg): 9.33 10 × 12 cells/L | WBC ([6]; 6 mg): 4.63 10 × 9 cells/L | Brain weight ([6]; 6 mg/kg): 0.36 ± 0.03 g | Heart weight ([6]; 6 mg/kg): 0.11 ± 0.01 g | Kidney weight ([6]; 6 mg/kg): 0.27 ± 0.01 g | Liver weight ([6]; 6 mg/kg): 1.1 ± 0.08 g | Spleen weight ([6]; 6 mg/kg): 0.089 ± 0.01 g
Compound: CCN(C)C(=S)NN=C(c1ccccn1)c1ccccn1 [Dp4e4mT.HCl, di-2-pyridylketone 4-ethyl-4-methyl-3-thiosemicarbazone]
Body weight (% initial) ([5]; oral, 10 mg/kg): 94 % initial | Body weight (% of initial weight) ([6]; 1.5 mg/kg): 95.14 ± 0.97 % initial weight | Body weight (% of initial weight) ([6]; 4 mg/kg): 99.41 ± 1.75 % initial weight | weight loss (% of initial body weight) ([6]; 4 mg/kg): 0.6% | Body weight (% of initial weight) ([6]; 6 mg/kg): 93.38 ± 3.96 % initial weight | weight loss (% of initial body weight) ([6]; 6 mg/kg): 7% | Tumour weight ([7]; 1.5 mg/kg): 0.48 ± 0.6 g | Tumour weight ([7]; 4 mg/kg): 0.11 ± 0.09 g | Tumour weight ([7]; 6 mg/kg): 0.04 ± 0.03 g | Tumour weight ([8]; 2.5 mg/kg): 0.63 g | net tumour size (% of initial tumour volume) ([8]; 2.5 mg/kg): 645% | net tumour size (% of initial tumour volume) ([8]; 5 mg/kg): 733% | Tumour weight ([8]; 10 mg/kg): 0.46 g

MYOCARDIUM Fibrosis [12]: − | MYOCARDIUM HP (histopathological changes) [12]: N | SPLEEN HPC (score for the presence of haematopoietic cells in the splenic red pulp) [12]: N | iron deposits in the kidney [12]: iron deposits were observed
Compound: CN(C(=S)NN=C(c1ccccn1)c1ccccn1)C1CCCCC1 [Dp4cycH4mT.HCl, di-2-pyridylketone 4-cyclohexyl-4-methyl-3-thiosemicarbazone]
average tumour size (% of the original tumour size) ([13]; after 6 weeks, 5 mg/kg i.v. 5 days/week): 112% | final tumour weight ([13]; after 43 days, 5 mg/kg i.v.): 40 ± 12 mg
